Reference: publication PMC5655044, “Reducing Antibacterial Development Risk for GSK1322322 by Exploring Potential Human Dose Regimens in Nonclinical Efficacy Studies Using Immunocompetent Rats” (Antimicrobial Agents and Chemotherapy, 2017)
In brackets after ≈: the same amount, converted by molar mass. Several values for one entry are separate records, joined by “and”; a condition that tells them apart may be missing. Identical values can stand only once. Like-named read-outs stand apart in the source and are kept apart here.

Assays:
[1] = test system: H. influenzae; experiment: Rat model of H. influenzae pneumonia with recreated human exposure profiles; assay type: in vivo; conditions: for Log10 reductions versus the levels at the baseline: 96 h
Method: (§1) The respiratory tract infection model was performed as previously described by Hoover et al. with slight modifications ([25]). Briefly, rats were anesthetized with a cocktail containing ketamine hydrochloride (Ketaset; 40 mg/kg) and xylazine (Rompun; 5 mg/kg) via intramuscular injection of 150 μl. The infection was induced by instilling 200 μl of the bacterial suspension in cooled, molten nutrient agar directly into the left lung via nonsurgical intratracheal intubation. As described in detail by Hoover et al., the use of agar for the inoculum boosts the ability of these organisms to establish infection in immunocompetent animals ([25]). The final inoculum ranged from 5.7 to 6.2 log10 CFU/rat for S. pneumoniae and 6.2 to 7.5 log10 CFU/rat for H. influenzae.
(§2) Solutions were freshly prepared each day.
(§3) One set of rats was euthanized at 1 h postinfection to establish the baseline bacterial burden at the time that dosing was initiated. All remaining animals were euthanized at 96 h postinfection. Euthanasia was achieved by carbon dioxide overdose, and infected tissues were excised aseptically and homogenized in 1 ml PBS using a laboratory blender (Stomacher 80; Seward Ltd., Worthing, West Sussex, UK). The lungs were removed whole and blotted to remove excess blood prior to processing. Abscesses were excised intact by removing all surrounding skin and tissue to ensure collection of the entire infected area along with the complete abscess itself. For enumeration of viable bacterial numbers, 10-fold serial dilutions were prepared in PBS and triplicate samples of 20 μl each were inoculated onto Trypticase soy agar supplemented with 5% sheep's blood (S. pneumoniae and S. aureus) or chocolate agar (H. influenzae) by a modified Miles-Misra technique ([27], [28]), using a Hamilton Microlab AT 2 Plus system. The colonies were counted following overnight incubation at 37°C, and the limit of detection was ≤1.7 log10 CFU/tissue.
(§4) The outcome measure for efficacy was the number of bacteria isolated from the infected tissues (number of log10 CFU per lungs or number of log10 CFU per abscess) at the conclusion of the study. Results are presented either as group means or as the change in the number of CFU from that at the baseline with associated standard errors of the means (SEM) for the difference. Statistical analysis was performed using the Student t test with a significance level of 0.05.

[2] = cited from earlier work; for AUC0–t Human / Cmax Human: estimated from published oral PK data; for AUC from 0 to 12 h postdosing: human
[3] = test system: H. influenzae; experiment: MIC by CLSI broth microdilution, H. influenzae isolates; assay type: cell-based, Haemophilus influenzae; set-up: key to Susceptibility category (superscript to MIC): R, resistant; S, susceptible; NS, nonsusceptible (resistance not defined); conditions: for MIC: Haemophilus influenzae
Method: (§5) The strains chosen for these studies were clinical isolates from the GSK collection. They were selected on the basis of their desired susceptibility to GSK1322322, resistance phenotype, proven ability to produce robust infections in the rat infection models used in the present study, and previous validation in the models using positive- and negative-control antimicrobials (data on file). MICs were determined using the Clinical and Laboratory Standards Institute-recommended standards for broth microdilution ([24]) and are shown in Table 2. The MIC assay was repeated multiple times for each isolate, and results were consistent (within an accepted variation of ±1 dilution) across assays.

[4] = test system: S. aureus; experiment: Rat model of S. aureus abscess with recreated human exposure profiles; assay type: in vivo; conditions: recreated AZM 1,000/500-mg profile, all three (macrolide-resistant) S. aureus isolates
Method: Rats were also anesthetized as described above for establishment of the abscess infection model. A subcutaneous groin abscess was created by injecting 1 ml of the bacterial suspension in semisolid nutrient agar subcutaneously into the loose skin of the right groin area. The final inoculum for the S. aureus strains utilized ranged from 6.4 to 7.2 log10 CFU/rat.
as §2
as §3, with “For enumeration of viable bacterial numbers, 10-fold serial dilutions were prepared in PBS and triplicate samples of 20 μl each were inoculated onto Trypticase soy agar supplemented with 5% sheep's blood (S. pneumoniae and S. aureus) or chocolate agar (H. influenzae) by a modified Miles-Misra technique ([27], [28]), using a Hamilton Microlab AT 2 Plus system.” left out, “CFU/tissue. […]” for “CFU/tissue.”

[5] = test system: S. pneumoniae; experiment: MIC by CLSI broth microdilution, S. pneumoniae isolates; assay type: cell-based, Streptococcus pneumoniae; set-up: key to Susceptibility category (superscript to MIC): R, resistant; S, susceptible; NS, nonsusceptible (resistance not defined); conditions: for MIC: Streptococcus pneumoniae
Method: as §5

[6] = test system: S. aureus; experiment: MIC by CLSI broth microdilution, S. aureus isolates; assay type: cell-based, Staphylococcus aureus; set-up: key to Susceptibility category (superscript to MIC): R, resistant; S, susceptible; NS, nonsusceptible (resistance not defined); conditions: for MIC: Staphylococcus aureus
Method: as §5

[7] = test system: S. pneumoniae; experiment: Rat model of S. pneumoniae pneumonia with recreated human exposure profiles; assay type: in vivo; conditions: for Reduction in bacterial burden compared with controls at baseline: LVX- and AZM-resistant S. pneumoniae isolate, recreated human profiles (LVX 500 mg, AZM 1,000/500 mg once daily)
Method: as §1, §2, §3, §4

[8] = Blood versus plasma concentrations, rat; assay type: in vitro ADME; conditions: rat (data on file)
[9] = Epithelial lining fluid penetration in infected rats; assay type: in vivo; conditions: rat, epithelial lining fluid (total drug) / plasma (free drug); infected rats (data on file); read-out: Ratio of the total drug epithelial lining fluid AUC to the free drug plasma AUC
[10] = Blood versus plasma concentrations, human; assay type: in vitro ADME; conditions: human (data on file)
[11] = set-up: method as in PMID 24189245; conditions: healthy volunteers; cited from earlier work
[12] = susceptible S. pneumoniae strain, recreated human profiles, bacterial numbers reduced to below or close to the limit of detection

| Compound | Susceptibility category (superscript to MIC) ([3]; H. influenzae 511343) | Susceptibility category (superscript to MIC) ([3]; H. influenzae 1302002H) | Susceptibility category (superscript to MIC) ([3]; H. influenzae H128) | MIC ([3]; H. influenzae 511343) [µg/mL] | MIC ([3]; H. influenzae 1302002H) [µg/mL] | MIC ([3]; H. influenzae H128) [µg/mL] | Susceptibility category (superscript to MIC) ([5]; S. pneumoniae ERY2) | Susceptibility category (superscript to MIC) ([5]; S. pneumoniae L11259) | Susceptibility category (superscript to MIC) ([5]; S. pneumoniae TPS3) | MIC ([5]; S. pneumoniae ERY2) [µg/mL] | MIC ([5]; S. pneumoniae L11259) [µg/mL] | MIC ([5]; S. pneumoniae TPS3) [µg/mL] | Susceptibility category (superscript to MIC) ([6]; S. aureus A-24) | Susceptibility category (superscript to MIC) ([6]; S. aureus PVL-2) | Susceptibility category (superscript to MIC) ([6]; S. aureus X32601) | MIC ([6]; S. aureus A-24) [µg/mL] | MIC ([6]; S. aureus PVL-2) [µg/mL] | MIC ([6]; S. aureus X32601) [µg/mL] | Reduction in bacterial burden compared with controls at baseline ([7]; 96 h) | Effect on bacterial burden [7, 12] | further results |
| --- | --- | --- | --- | --- | --- | --- | --- | --- | --- | --- | --- | --- | --- | --- | --- | --- | --- | --- | --- | --- | --- |
| CC[C@H]1OC(=O)[C@H](C)[C@@H](O[C@H]2C[C@@](C)(OC)[C@@H](O)[C@H](C)O2)[C@H](C)[C@@H](O[C@@H]2O[C@H](C)C[C@H](N(C)C)[C@H]2O)[C@](C)(O)C[C@@H](C)CN(C)[C@H](C)[C@@H](O)[C@]1(C)O [AZM, azithromycin] | S | S | S | 4 (≈ 5.34 µM) | 2 (≈ 2.67 µM) | 0.5 (≈ 0.668 µM) | R | S | R | 16 (≈ 21.4 µM) | 0.03 (≈ 0.0401 µM) | 4 (≈ 5.34 µM) | R | R | R | > 64 | > 64 | > 64 | did not demonstrate any reduction in bacterial burden | highly effective | Log10 reductions versus the levels at the baseline ([1]; recreated AZM 1,000-mg loading then 500-mg profile once daily, two of three H. influenzae isolates): 1.2 log10 CFU/lungs and 1.4 log10 CFU/lungs; Efficacy ([1]; recreated AZM 1,000/500-mg profile, H. influenzae isolate with AZM MIC of 4 mg/liter): ineffective; AUC0–t Human ([2]; 1,000/500 mg oral steady-state profile, 24 h interval): 4.9 µg·h/mL; Cmax Human ([2]; 1,000/500 mg oral steady-state profile): 500 ng/mL; Efficacy [4]: ineffective; Effect on bacterial burden ([7]; second AZM-resistant S. pneumoniae isolate, recreated AZM 1,000/500 mg profile, 96 h): no effect |
| Cc1nc(NNC(=O)[C@H](CC2CCCC2)CN(O)C=O)c(F)c(N2CCN3CCOC[C@@H]3C2)n1 [GSK1322322] | – | – | – | 4 (≈ 8.34 µM) | 4 (≈ 8.34 µM) | 2 (≈ 4.17 µM) | – | – | – | 0.5 (≈ 1.04 µM) | 2 (≈ 4.17 µM) | 0.5 (≈ 1.04 µM) | – | – | – | 4 (≈ 8.34 µM) | 4 (≈ 8.34 µM) | 1 (≈ 2.09 µM) | – | – | Blood and plasma concentrations compared [8]: similar; Kp [9]: 3.3; Blood and plasma concentrations compared [10]: similar; Ratio of the total drug epithelial lining fluid AUC to the free drug plasma AUC [11]: 3.5 |
| C[C@H]1COc2c(N3CCN(C)CC3)c(F)cc3c(=O)c(C(=O)O)cn1c23 [LVX, levofloxacin] | NS | S | S | 4 (≈ 11.1 µM) | 0.06 (≈ 0.166 µM) | 0.016 (≈ 0.0443 µM) | S | S | R | 1 (≈ 2.77 µM) | 1 (≈ 2.77 µM) | 32 (≈ 88.6 µM) | – | S | R | – | 0.25 (≈ 0.692 µM) | 32 (≈ 88.6 µM) | did not demonstrate any reduction in bacterial burden | highly effective | Log10 reductions versus the levels at the baseline ([1]; recreated 500-mg LVX profile once daily, two susceptible H. influenzae isolates): 4.2 log10 CFU/lungs and 4.5 log10 CFU/lungs; Efficacy ([1]; recreated 500-mg LVX profile, nonsusceptible H. influenzae strain): ineffective; AUC0–t Human ([2]; 500 mg single oral dose, 24 h interval): 40 µg·h/mL; Cmax Human ([2]; 500 mg single oral dose): 4300 ng/mL |
| CC(=O)NC[C@H]1CN(c2ccc(N3CCOCC3)c(F)c2)C(=O)O1 [LZD, linezolid] | – | – | – | – | – | – | – | – | – | – | – | – | S | S | S | 4 (≈ 11.9 µM) | 2 (≈ 5.93 µM) | 1 (≈ 2.96 µM) | – | – | AUC0–t Human ([2]; 625 mg oral steady state, 12 h interval): 147 µg·h/mL; AUC from 0 to 12 h postdosing ([2]; LZD 625 mg oral): 147 µg·h/mL; AUC from 0 to 12 h postdosing ([2]; LZD 600-mg approved oral dose): 138 µg·h/mL |
| Cc1onc(-c2ccccc2)c1C(=O)N[C@@H]1C(=O)N2[C@@H]1SC(C)(C)[C@@H]2C(=O)O [Oxacillin] | – | – | – | – | – | – | – | – | – | – | – | – | – | R | R | – | 32 (≈ 79.7 µM) | > 64 | – | – | – |
